Measurements as given in patent publication US10787441B2, “Hepatitis C virus inhibitors” (priority 2016, dated 2020).
Like-named read-outs stand apart in the source and are kept apart here.

Assays:
Type in all cases: cell-based, Hepatitis C virus
[1] = system: HCV genotype 3a NS5A within the 1b-replicon; experiment: HCV replicon assay, genotype 3a (NS5A intergenotypic stable cell line)
Source text: The nucleotide sequences of the NS5A region of genotype 2a (GenBank Accession # AB047639), genotype 3a (GenBank Accession # D17763), and genotype 4a (GenBank Accession # DQ418788) were synthesized by an outside vendor. The NS5A region of each of these genotypes included the first 11 amino acids of the protease recognition sequence of genotype 1b, as well as the last 10 amino acids of genotype 1b. The NS5A gene cassettes were excised with site specific restriction endonucleases and ligated into a ZS11-luciferase genotype 1b backbone (backbone contains the genotype 1b NS3 protease, NS4a, NS4b, and NS5b coding regions) with similarly cut restriction enzyme sites. Thus, the newly constructed plasmid contains a genotype 2a-, 3a- or 4a-specific NS5A gene within the 1b-replicon.
These new intergenotypic plasmids were used to establish stable cell lines. RNA was generated from the NS5A intergenotypic plasmids and used in conjunction with a lipofectin reagent to transfect a cured Huh7 cell line. Transfected cells were selected for with G418. After selection has occurred the stable cell lines were propagated, tested for luciferase activity, and RT-PCR with genotype specific primers (either 1a, 2a, 3a, or 4a). Stable cell lines containing the intergenotypic replicon were then fully sequenced and analyzed for proper expression of NS3, NS5A and NS5B proteins.
Drug titration analysis was performed using the luciferase replicon assay described herein.
(§1) The HCV luciferase replicon assay measures the ability of a test compound to inhibit HCV replication in cell culture after 3 days of treatment in a human hepatoma cell line (Huh-7) bearing an HCV replicon containing a luciferase-neomycin phosphotransferase fusion gene. The inhibition of HCV replication was measured by quantification of luciferase protein expression. Briefly, Huh-7 cells containing either the HCV genotype 1a H77 strain or genotype 1b Con1 strain subgenomic luciferase replicon (H1a-luc or Zluc, respectively) were grown in DMEM containing glucose, L-glutamine and sodium pyruvate, 10% fetal bovine serum (FBS), 100 IU/mL penicillin, 100 μg/mL streptomycin, 2 mM GlutaMAX, non-essential amino acids and 0.25 (H1a-luc) or 0.5 (Zluc) mg/mL G418. GlutaMAX was obtained from Invitrogen, Corp.; all other media reagents were obtained from Mediatech, Inc. For dose-response testing, the cells were seeded in 96-well plates at 1×10^4 (H1a-luc) or 7.5×10^3 (Zluc) cells/well in a volume of 50 μL, and incubated at 37° C./5% CO2. Three hours after plating, 50 μL of ten 5-fold serial dilutions of compound were added, and cell cultures were incubated at 37° C./5% CO2 for 72 hours. In all cases, Huh-7 cells lacking the HCV replicon served as negative control. To assess luciferase expression, the media/compound was removed from the plates and ONE-glo Luciferase assay reagent (Promega) was added to each well. The assay plates were shaken for 3 minutes at room temperature and luciferase activity for each well was measured with a 1 sec read time on the Victor^3V multilabel counter using a 700 nm cut-off filter (Perkin Elmer). EC50 values were calculated from dose response curves from the resulting best-fit equations determined by Microsoft Excel and XLfit 4.1 software.

[2] = system: HCV 1aY93H mutant replicon; experiment: HCV replicon assay, genotype 1a Y93H mutant
Description: General procedure: The luciferase replicon transient transfection assay measures the ability of a test compound to inhibit the replication of a transiently-transfected HCV luciferase-bearing wild-type or mutant replicon in cured human hepatoma cells (Huh7.5). The inhibition of HCV replication was measured by quantification of luciferase protein expression. This assay has been validated using a panel of genotype 1a and 1b replicons bearing mutations known to be associated with resistance to BMS-790052. Briefly, subconfluent Huh7.5 cells were electroporated with 10 μg of wild-type or mutant luciferase-bearing HCV replicon RNA. The cells were then seeded in 96-well opaque white plates at 3×10^4 cells/well in 150 μL/well and incubated for 4 hrs at 37° C./5% CO2. Ten 1:5 serial dilutions of each test compound were made in media (DMEM containing glucose, L-glutamine and sodium pyruvate, 10% fetal bovine serum, 100 IU/mL penicillin, 100 μg/mL streptomycin, 2 mM GlutaMAX, and 1×MEM non-essential amino acids (Mediatech, Inc. and Invitrogen Corp.)) at concentrations that were 4× higher than the final concentrations to be tested and 50 μL/well was added to the transfected cells. Untreated, mock-transfected cells served as a negative control of luciferase expression. The plates were incubated at 37° C./5% CO2 for 4 days whereupon the media was removed and 50 μL of ONE-glo luciferase substrate (Promega) was added to each well. The plates were agitated on a rotating platform at room temperature for 3 min and read in a Victor^3V microplate reader (Perkin-Elmer) using a 700 nm cut-off filter with a 1 sec read time. EC50 values were calculated from dose response curves from the resulting best-fit equations determined by Microsoft Excel and XLfit 4.1 software.

[3] = system: HCV genotype 1a H77 strain subgenomic luciferase replicon; experiment: HCV replicon assay, genotype 1a
Description: as §1

[4] = system: HCV 2b; experiment: HCV replicon assay, genotype 2b
[5] = system: HCV genotype 1b Con1 strain subgenomic luciferase replicon; experiment: HCV replicon assay, genotype 1b
Description: as §1

[6] = Hepatitis C virus, read-out: 3a IC50 (nM), HCV genotype 3a
[7] = Hepatitis C virus, read-out: 1aY93H IC50 (nM), HCV genotype 1a, Y93H mutant
[8] = read-out: 1a IC50, HCV genotype 1a
[9] = read-out: 2b IC50, HCV genotype 2b
[10] = read-out: 3a IC50, HCV genotype 3a
[11] = read-out: 1aY93H IC50, HCV genotype 1a, Y93H mutant
[12] = Hepatitis C virus, read-out: 1a IC50 (nM), HCV genotype 1a
[13] = Hepatitis C virus, read-out: 2b IC50 (nM), HCV genotype 2b

SMILES: COC(=O)N[C@H](C(=O)N1CCC[C@H]1c1ncc(-c2ccc3c(c2)Oc2ccc4cc(-c5cnc([C@@H]6CCCN6C(=O)[C@@H](NC(=O)OC)C(C)C)[nH]5)ccc4c2C3C)[nH]1)C(C)C (single isomer, unassigned) [Compound 2]
- IC50 [1, 6]: 1.38 nM
- IC50 [2, 7]: 10.6 nM
- IC50 [3, 8]: 0.0046 nM
- IC50 [4, 9]: 37.1 nM
- IC50 [5]: 3.6 pM

SMILES: COC(=O)N[C@H](C(=O)N1CCC[C@H]1c1ncc(-c2ccc3c(c2)Oc2ccc4cc(-c5cnc([C@@H]6CCCN6C(=O)[C@@H](NC(=O)OC)C(C)C)[nH]5)ccc4c2C3C)[nH]1)C(C)C (single isomer, unassigned) [Compound 3]
- IC50 [1, 10]: 0.721 nM
- IC50 [2, 11]: 7.15 nM
- IC50 [3, 8]: 0.0022 nM
- IC50 [4, 9]: 1.95 nM
- IC50 [5]: 1.6 pM

SMILES: COC(=O)N[C@H](C(=O)N1CCC[C@H]1c1ncc(-c2ccc3c(c2)Oc2ccc4cc(-c5cnc([C@@H]6CCCN6C(=O)[C@@H](NC(=O)OC)C6CCOCC6)[nH]5)ccc4c2C3C)[nH]1)C1CCOCC1 (single isomer, unassigned) [Compound 11]
- IC50 [1, 6]: 0.038 nM
- IC50 [2, 7]: 0.391 nM
- IC50 [3, 12]: 0.0037 nM
- IC50 [4, 9]: 0.016 nM
- IC50 ([5]; Hepatitis C virus): 4.4 pM

SMILES: COC(=O)N[C@H](C(=O)N1CCC[C@H]1c1ncc(-c2ccc3c(c2)Oc2ccc4cc(-c5cnc([C@@H]6CCCN6C(=O)[C@@H](NC(=O)OC)C6CCOCC6)[nH]5)ccc4c2C3C)[nH]1)C1CCOCC1 (single isomer, unassigned) [Compound 12]
- IC50 [1, 10]: 0.055 nM
- IC50 [2, 11]: 0.548 nM
- IC50 [3, 8]: 0.0045 nM
- IC50 [4, 9]: 0.495 nM
- IC50 [5]: 5.6 pM

SMILES: CCC1c2ccc(-c3cnc([C@@H]4CCCN4C(=O)[C@@H](NC(=O)OC)C4CCOCC4)[nH]3)cc2Oc2ccc3cc(-c4cnc([C@@H]5CCCN5C(=O)[C@@H](NC(=O)OC)C5CCOCC5)[nH]4)ccc3c21 (single isomer, unassigned) [Compound 15]
- IC50 [1, 10]: 0.218 nM
- IC50 [2, 11]: 0.826 nM
- IC50 [3, 8]: 0.0098 nM
- IC50 [4, 13]: 0.292 nM
- IC50 ([5]; Hepatitis C virus): 3.6 pM

SMILES: CCC1(CC)c2ccc(-c3cnc([C@@H]4CCCN4C(=O)[C@H](NC(=O)OC)C(C)C)[nH]3)cc2Oc2cc3ccc(-c4cnc([C@@H]5CCCN5C(=O)[C@@H](NC(=O)OC)C(C)C)[nH]4)cc3cc21 [Compound 9, methyl [(1R)-1-({(2S)-2-[5-(12,12-diethyl-9-{2-[(2S)-1-{(2S)-2-[(methoxycarbonyl)amino]-3-methylbutanoyl}pyrrolidin-2-yl]-1H-imidazol-5-yl}-12H-benzo[b]xanthen-3-yl)-1H-imidazol-2-yl]pyrrolidin-1-yl}carbonyl)-2-methylpropyl]carbamate]
- IC50 [1, 6]: 1.11 nM
- IC50 [2, 7]: 3.28 nM
- IC50 [3, 12]: 0.002 nM
- IC50 [4, 13]: 4.53 nM

SMILES: COC(=O)N[C@H](C(=O)N1CCC[C@H]1c1ncc(-c2ccc3c(c2)Oc2ccc4cc(-c5cnc([C@@H]6CCCN6C(=O)[C@@H](NC(=O)OC)C6CCOCC6)[nH]5)ccc4c2C3(C)C)[nH]1)C1CCOCC1 [Compound 13, dimethyl [(12,12-dimethyl-12H-benzo[a]xanthene-3,9-diyl)bis{1H-imidazole-5,2-diyl(2S)pyrrolidine-2,1-diyl[(1S)-2-oxo-1-(tetrahydro-2H-pyran-4-yl)ethane-2,1-diyl]}]biscarbamate]
- IC50 [1, 6]: 0.084 nM
- IC50 [2, 7]: 0.682 nM
- IC50 [3, 12]: 0.0023 nM
- IC50 [4, 13]: 0.254 nM
- IC50 ([5]; Hepatitis C virus): 4 pM

SMILES: CCC1(CC)c2ccc(-c3cnc([C@H]4CCCN4C(=O)[C@@H](NC(=O)OC)C4CCOCC4)[nH]3)cc2Oc2ccc3cc(-c4cnc([C@H]5CCCN5C(=O)[C@H](NC(=O)OC)C5CCOCC5)[nH]4)ccc3c21 [Compound 16, methyl [(1R)-2-[(2R)-2-{5-[12,12-diethyl-9-(2-{(2R)-1-[(2S)-2-[(methoxycarbonyl)amino]-2-(tetrahydro-2H-pyran-4-yl)acetyl]pyrrolidin-2-yl}-1H-imidazol-5-yl)-12H-benzo[a]xanthen-3-yl]-1H-imidazol-2-yl}pyrrolidin-1-yl]-2-oxo-1-(tetrahydro-2H-pyran-4-yl)ethyl]carbamate]
- IC50 [1, 6]: 0.015 nM
- IC50 [2, 7]: 0.072 nM
- IC50 [3, 12]: 0.0036 nM
- IC50 [4, 13]: 0.032 nM
- IC50 ([5]; Hepatitis C virus): 4.4 pM

SMILES: COC(=O)N[C@H](C(=O)N1CCC[C@H]1c1ncc(-c2ccc3c(ccc4oc5cc(-c6cnc([C@@H]7CCCN7C(=O)[C@@H](NC(=O)OC)C7CCOCC7)[nH]6)ccc5c(=O)c43)c2)[nH]1)C1CCOCC1 [Compound 30, dimethyl [(12-oxo-12H-benzo[a]xanthene-3,9-diyl)bis{1H-imidazole-5,2-diyl(2S)pyrrolidine-2,1-diyl[(1S)-2-oxo-1-(tetrahydro-2H-pyran-4-yl)ethane-2,1-diyl]}]biscarbamate]
- IC50 [1, 6]: 0.722 nM
- IC50 [2, 7]: 2.03 nM
- IC50 [3, 12]: 0.0416 nM
- IC50 [4, 13]: 0.481 nM

SMILES: CCN(CC)[C@@H](C(=O)N1C[C@H](F)C[C@H]1c1ncc(-c2ccc3c(ccc4oc5cc(-c6cnc([C@@H]7C[C@@H](F)CN7C(=O)[C@@H](c7ccccc7)N(CC)CC)[nH]6)ccc5c(=O)c43)c2)[nH]1)c1ccccc1 [Compound 31, 3,9-bis(2-{(2S,4R)-1-[(2R)-2-(diethylamino)-2-phenylacetyl]-4-fluoropyrrolidin-2-yl}-1H-imidazol-5-yl)-12H-benzo[a]xanthen-12-one]
- IC50 [1, 6]: 0.0262 nM
- IC50 [2, 7]: 506 nM
- IC50 [3, 12]: 0.31 nM
- IC50 [4, 13]: 797 nM

SMILES: COC(=O)N[C@H](C(=O)N1C[C@H](F)C[C@H]1c1ncc(-c2ccc3c(ccc4oc5cc(-c6cnc([C@@H]7C[C@@H](F)CN7C(=O)[C@@H](NC(=O)OC)C7CCOCC7)[nH]6)ccc5c(=O)c43)c2)[nH]1)C1CCOCC1 [Compound 32, dimethyl [(12-oxo-12H-benzo[a]xanthene-3,9-diyl)bis{1H-imidazole-5,2-diyl[(2S,4R)-4-fluoropyrrolidine-2,1-diyl][(1S)-2-oxo-1-(tetrahydro-2H-pyran-4-yl)ethane-2,1-diyl]}]biscarbamate]
- IC50 [1, 6]: 5.84 nM
- IC50 [2, 7]: 0.18 nM
- IC50 [3, 12]: 0.0841 nM
- IC50 [4, 13]: 3.47 nM
